Measurements: PubChem BioAssay AID1963975 (Molecular Pharmacology Branch, DTP, NCI, 2024)

Test system: 624824-186-R-J2-PDC multicell spheroids, viability
Assay: Anticancer human tumor 624824-186-R-J2-PDC patient-derived colon adenocarcinoma cell line growth inhibition [PI3K]
Settings: for IC50: curve of first compound; for viability, T/C: stronger effect = lower value
Text: Combinatorial screen of targeted agents with the PI3K inhibitors inavolisib, alpelisib, duvelisib, and copanlisib in multi-cell type tumor spheroids
A high-throughput screen of multi-cell type tumor spheroids was designed to identify active combinations of targeted small molecules and PI3K pathway inhibitors. Complex spheroids include a stromal component modeled by human endothelial cells (HUVEC) and fibroblasts modeled by human mesenchymal stem cells (MSCs). The concentration ranges selected for each drug and investigational agent were based upon clinically achievable concentrations if the clinical Cmax of the agent was known.
Compounds. The drugs and investigational agents: inavolisib (NSC800729), alpelisib (NSC765974), duvelisib (NSC772469), copanlisib (NSC816437), ipatasertib (NSC767898), afuresertib (NSC778305), talazoparib (NSC767125), sapanisertib (NSC764658), selumetinib (NSC741078), tovorafenib (DAY101, NSC766906), vemurafenib (NSC761431), ravoxertinib (NSC781343), sotorasib (NSC818433), MRTX1133 (NSC 836407), abemaciclib (NSC 768073), palbociclib (NSC758247), venetoclax (NSC 766270), SY5609 (NSC837396), enzalutamide (NSC755605), and darolutamide (NSC825331), were obtained from the National Cancer Institute (NCI) Developmental Therapeutics Program Chemical Repository. The FDA-approved anticancer drug set is available from the NCI Developmental Therapeutics Program. […] The stock solutions were prepared in dimethyl sulfoxide (DMSO, Sigma-Aldrich, St. Louis, MO, cat. D2650) at 800-fold the tested concentration and stored at -70 degrees C prior to their use. All drugs and investigational agents were tested over a range starting from a high concentration at or near the clinical Cmax and decreasing in half-log increments. If the clinical Cmax for an agent had not been determined, the highest concentration tested was 10 microM.
Cell Culture. All cells were maintained in an incubator at 37 degrees C and 5% CO2 with 95% humidity. The PDC lines were cultured according to standard operating procedures established by the NCI PDMR (https://pdmr.cancer.gov/sops/default.htm). All PDCs were thawed and cultured in Matrigel-coated flasks prepared with a working solution of 1X Ham's F-12 nutrient mix, without supplementation (Invitrogen, Waltham, MA, cat. 11765054), 100 U/mL penicillin-streptomycin (Invitrogen, cat. 15140122), and 2.5% Matrigel (Corning Inc., Corning, NY, cat. 354248) for the first three passages. The 354836-022-R-J1-PDC, 475296-252-R-J1-PDC, and 997726-040-R-J2-PDC lines were cultured in 6A media, which includes advanced DMEM/F-12 (Thermo Fisher Scientific, cat. 12634028), 10 mM HEPES (Thermo Fisher Scientific, cat. 15630080), 1X GlutaMAX supplement (Thermo Fisher Scientific, cat. 35050061), 0.1 mg/mL primocin (InvivoGen, San Diego, CA, cat. ant-pm-2), 10% defined fetal bovine serum, heat inactivated (HyClone Laboratories Inc., Logan, UT, cat. SH30070.03HI), 50% L-WRN conditioned media (ATCC, cat. CRL-3276), 1.25 mM N-Acetyl-L-cysteine (Sigma-Aldrich, cat. A9165), 10 mM nicotinamide (Sigma-Aldrich, cat. N0636), 1X B-27 supplement (Thermo Fisher Scientific, cat. 17504044), 1X N-2 supplement (Thermo Fisher Scientific, cat. 17502048), and 10 microM Y-27632 dihydrochloride (Tocris Bioscience, Bristol, United Kingdom, cat. 1254). The 624824-186-R-J2-PDC line was cultured in 6C/Colon 1B media, which includes all 6A media components plus 50 ng/mL human EGF recombinant protein (Thermo Fisher Scientific, cat. PHG0311). […]
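Further: spheroids exposed to agents for 7 days before viability read.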
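Wherever viability, T/C is given: 100% = DMSO vehicle treated spheroids.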

Question: For `Cn1cnc2c(F)c(Nc3ccc(Br)cc3Cl)c(C(=O)NOCCO)cc21` + CC(Nc1ccc2c(c1)OCCn1cc(N3C(=O)OCC3C(F)F)nc1-2)C(N)=O, which IC50 (second compound 0.00316 µM) is on record?
Answer: > 3000 nM

Question: And the IC50 (second compound 0.01 µM)?
Answer: > 3000 nM

Question: What about the IC50 (second compound 0.0316 µM) of the same compound?
Answer: > 3000 nM

Question: And the IC50 (second compound 0.1 µM)?
Answer: > 3000 nM

Question: What about the IC50 (second compound 0.316 µM) of the same compound?
Answer: 2930 nM

Question: And the IC50 (second compound 1 µM)?
Answer: 669 nM

Question: And the viability, T/C (second compound 0.00316 µM, first compound 0.00949 µM)?
Answer: 89.3%

Question: And the viability, T/C (second compound 0.00316 µM, first compound 0.03 µM)?
Answer: 76.8%

Question: What about the viability, T/C (second compound 0.00316 µM, first compound 0.0949 µM) of the same compound?
Answer: 76%

Question: And the viability, T/C (second compound 0.00316 µM, first compound 0.3 µM)?
Answer: 74.8%

Question: What about the viability, T/C (second compound 0.00316 µM, first compound 0.949 µM) of the same compound?
Answer: 87.8%

Question: What about the viability, T/C (second compound 0.00316 µM, first compound 3 µM) of the same compound?
Answer: 78.7%

Question: And the viability, T/C (second compound 0.01 µM, first compound 0.00949 µM)?
Answer: 87.2%

Question: And the viability, T/C (second compound 0.01 µM, first compound 0.03 µM)?
Answer: 71.2%

Question: And the viability, T/C (second compound 0.01 µM, first compound 0.0949 µM)?
Answer: 81.9%

Question: And the viability, T/C (second compound 0.01 µM, first compound 0.3 µM)?
Answer: 70.9%

Question: What about the viability, T/C (second compound 0.01 µM, first compound 0.949 µM) of the same compound?
Answer: 89.6%

Question: What about the viability, T/C (second compound 0.01 µM, first compound 3 µM) of the same compound?
Answer: 81.8%

Question: And the viability, T/C (second compound 0.0316 µM, first compound 0.00949 µM)?
Answer: 72.1%

Question: And the viability, T/C (second compound 0.0316 µM, first compound 0.03 µM)?
Answer: 66.2%

Question: What about the viability, T/C (second compound 0.0316 µM, first compound 0.0949 µM) of the same compound?
Answer: 75.7%

Question: What about the viability, T/C (second compound 0.0316 µM, first compound 0.3 µM) of the same compound?
Answer: 77.4%

Question: What about the viability, T/C (second compound 0.0316 µM, first compound 0.949 µM) of the same compound?
Answer: 85.8%

Question: And the viability, T/C (second compound 0.0316 µM, first compound 3 µM)?
Answer: 67.1%

Question: What about the viability, T/C (second compound 0.1 µM, first compound 0.00949 µM) of the same compound?
Answer: 83.3%

Question: And the viability, T/C (second compound 0.1 µM, first compound 0.03 µM)?
Answer: 68.2%

Question: And the viability, T/C (second compound 0.1 µM, first compound 0.0949 µM)?
Answer: 61.1%

Question: What about the viability, T/C (second compound 0.1 µM, first compound 0.3 µM) of the same compound?
Answer: 84.2%

Question: And the viability, T/C (second compound 0.1 µM, first compound 0.949 µM)?
Answer: 67.9%

Question: And the viability, T/C (second compound 0.1 µM, first compound 3 µM)?
Answer: 78.8%

Question: What about the viability, T/C (second compound 0.316 µM, first compound 0.00949 µM) of the same compound?
Answer: 102%

Question: And the viability, T/C (second compound 0.316 µM, first compound 0.03 µM)?
Answer: 68.1%

Question: And the viability, T/C (second compound 0.316 µM, first compound 0.0949 µM)?
Answer: 74%

Question: And the viability, T/C (second compound 0.316 µM, first compound 0.3 µM)?
Answer: 68.6%

Question: What about the viability, T/C (second compound 0.316 µM, first compound 0.949 µM) of the same compound?
Answer: 60.2%

Question: What about the viability, T/C (second compound 0.316 µM, first compound 3 µM) of the same compound?
Answer: 50.1%

Question: What about the viability, T/C (second compound 1 µM, first compound 0.00949 µM) of the same compound?
Answer: 68.2%

Question: And the viability, T/C (second compound 1 µM, first compound 0.03 µM)?
Answer: 68.8%

Question: And the viability, T/C (second compound 1 µM, first compound 0.0949 µM)?
Answer: 66.3%

Question: What about the viability, T/C (second compound 1 µM, first compound 0.3 µM) of the same compound?
Answer: 59.1%

Question: What about the viability, T/C (second compound 1 µM, first compound 0.949 µM) of the same compound?
Answer: 46%

Question: And the viability, T/C (second compound 1 µM, first compound 3 µM)?
Answer: 29.5%
